From ChEMBL document CHEMBL4382229, “Benzofuran derivatives and their anti-tubercular, anti-bacterial activities” (Eur J Med Chem, 2019)
≈ marks a conversion by molar mass, not a printed value.

What was measured:
Type in all cases: functional
Staphylococcus aureus [1] = experiment: Antibacterial activity against Staphylococcus aureus NCIM 2079 assessed as zone of inhibition at 1 ug/ml after 24 hrs by agar diffusion method; conditions: NCIM 2079, 24 h, read-out: IZ
Bacillus subtilis [2] = experiment: Antibacterial activity against Bacillus subtilis NCIM 2439 assessed as zone of inhibition at 1 ug/ml after 24 hrs by agar diffusion method; conditions: NCIM 2439, 24 h, read-out: IZ
Pseudomonas aeruginosa [3] = experiment: Antibacterial activity against Pseudomonas aeruginosa NCIB 8650 assessed as zone of inhibition at 1 ug/ml after 24 hrs by agar diffusion method; conditions: NCIB 8650, 24 h, read-out: IZ
Escherichia coli [4] = experiment: Antibacterial activity against Escherichia coli NCIM 2064 assessed as zone of inhibition at 1 ug/ml after 24 hrs by agar diffusion method; conditions: NCIM 2064, 24 h, read-out: IZ
Bacillus subtilis [5] = experiment: Antibacterial activity against Bacillus subtilis MTCC 1134 after 24 hrs by broth dilution method; conditions: MTCC 1134, 24 h
Pseudomonas aeruginosa [6] = experiment: Antibacterial activity against Pseudomonas aeruginosa MTCC 1034 after 24 hrs by broth dilution method; conditions: MTCC 1034, 24 h
Escherichia coli [7] = experiment: Antibacterial activity against Escherichia coli MTCC 1559 after 24 hrs by broth dilution method; conditions: MTCC 1559, 24 h
Escherichia coli [8] = experiment: Antibacterial activity against Escherichia coli assessed as zone of inhibition at 1 mg/ml after 32 hrs by agar-well diffusion method; conditions: read-out: IZ
Klebsiella pneumoniae = experiment: Antibacterial activity against Klebsiella pneumoniae assessed as zone of inhibition at 1 mg/ml after 32 hrs by agar-well diffusion method; conditions: read-out: IZ
Staphylococcus aureus [9] = experiment: Antibacterial activity against Staphylococcus aureus assessed as zone of inhibition at 1 mg/ml after 32 hrs by agar-well diffusion method; conditions: read-out: IZ
Pseudomonas aeruginosa [10] = experiment: Antibacterial activity against Pseudomonas aeruginosa assessed as zone of inhibition at 1 mg/ml after 32 hrs by agar-well diffusion method; conditions: read-out: IZ

SMILES: COC(=O)c1cc(-c2cc3cc(Br)ccc3o2)n(-c2ccccc2)n1
- zone of inhibition at 1 µg/mL (Staphylococcus aureus [1]): 9 to 30 mm
- zone of inhibition at 1 µg/mL (Bacillus subtilis [2]): 9 to 30 mm
- zone of inhibition at 1 µg/mL (Pseudomonas aeruginosa [3]): 9 to 30 mm
- zone of inhibition at 1 µg/mL (Escherichia coli [4]): 9 to 30 mm

SMILES: Sc1nc(-c2cc3cc(Br)ccc3o2)cc(-c2cccs2)n1
- MIC (Bacillus subtilis [5]): 4.32 to 18.4 µg/mL (≈ 11.1 to 47.4 µM)
- MIC (Pseudomonas aeruginosa [6]): 4.32 to 18.4 µg/mL (≈ 11.1 to 47.4 µM)
- MIC (Escherichia coli [7]): 4.32 to 18.4 µg/mL (≈ 11.1 to 47.4 µM)

SMILES: Sc1nc(-c2cc3ccccc3o2)cc(-c2cccs2)n1
- MIC (Bacillus subtilis [5]): 4.32 to 18.4 µg/mL (≈ 13.9 to 59.4 µM)
- MIC (Pseudomonas aeruginosa [6]): 4.32 to 18.4 µg/mL (≈ 13.9 to 59.4 µM)
- MIC (Escherichia coli [7]): 4.32 to 18.4 µg/mL (≈ 13.9 to 59.4 µM)

SMILES: Cc1ccc(-c2cc(-c3cc4cc(Br)ccc4o3)nc(S)n2)s1
- MIC (Bacillus subtilis [5]): 4.32 to 18.4 µg/mL (≈ 10.7 to 45.7 µM)
- MIC (Pseudomonas aeruginosa [6]): 4.32 to 18.4 µg/mL (≈ 10.7 to 45.7 µM)
- MIC (Escherichia coli [7]): 4.32 to 18.4 µg/mL (≈ 10.7 to 45.7 µM)

SMILES: NNC(=O)c1cc(-c2cc3ccccc3o2)n(-c2ccccc2)n1
- zone of inhibition at 1 µg/mL (Staphylococcus aureus [1]): 9 to 30 mm
- zone of inhibition at 1 µg/mL (Bacillus subtilis [2]): 9 to 30 mm
- zone of inhibition at 1 µg/mL (Pseudomonas aeruginosa [3]): 9 to 30 mm
- zone of inhibition at 1 µg/mL (Escherichia coli [4]): 9 to 30 mm

SMILES: COC(=O)c1cc(-c2cc3cc(Br)ccc3o2)[nH]n1
- zone of inhibition at 1 µg/mL (Staphylococcus aureus [1]): 9 to 30 mm
- zone of inhibition at 1 µg/mL (Bacillus subtilis [2]): 9 to 30 mm
- zone of inhibition at 1 µg/mL (Pseudomonas aeruginosa [3]): 9 to 30 mm
- zone of inhibition at 1 µg/mL (Escherichia coli [4]): 9 to 30 mm

SMILES: c1ccc(-c2csc3nc(-c4cc5ccccc5o4)cn23)cc1
- zone of inhibition at 1000 µg/mL (Escherichia coli [8]): 6 to 23 mm
- zone of inhibition at 1000 µg/mL (Klebsiella pneumoniae): 6 to 23 mm
- zone of inhibition at 1000 µg/mL (Staphylococcus aureus [9]): 6 to 23 mm
- zone of inhibition at 1000 µg/mL (Pseudomonas aeruginosa [10]): 6 to 23 mm

SMILES: Oc1nc(-c2cc3cc(Br)ccc3o2)cc(-c2cccs2)n1
- MIC (Bacillus subtilis [5]): 4.32 to 18.4 µg/mL (≈ 11.6 to 49.4 µM)
- MIC (Pseudomonas aeruginosa [6]): 4.32 to 18.4 µg/mL (≈ 11.6 to 49.4 µM)
- MIC (Escherichia coli [7]): 4.32 to 18.4 µg/mL (≈ 11.6 to 49.4 µM)

SMILES: COC(=O)c1cc(-c2cc3ccccc3o2)n(C(N)=O)n1
- zone of inhibition at 1 µg/mL (Staphylococcus aureus [1]): 9 to 30 mm
- zone of inhibition at 1 µg/mL (Bacillus subtilis [2]): 9 to 30 mm
- zone of inhibition at 1 µg/mL (Pseudomonas aeruginosa [3]): 9 to 30 mm
- zone of inhibition at 1 µg/mL (Escherichia coli [4]): 9 to 30 mm

SMILES: COC(=O)c1cc(-c2cc3ccccc3o2)[nH]n1
- zone of inhibition at 1 µg/mL (Staphylococcus aureus [1]): 9 to 30 mm
- zone of inhibition at 1 µg/mL (Bacillus subtilis [2]): 9 to 30 mm
- zone of inhibition at 1 µg/mL (Pseudomonas aeruginosa [3]): 9 to 30 mm
- zone of inhibition at 1 µg/mL (Escherichia coli [4]): 9 to 30 mm

SMILES: Cc1c(-c2cc(C(=O)NN)nn2-c2ccccc2)oc2c(Cl)cc(Cl)cc12
- zone of inhibition at 1 µg/mL (Staphylococcus aureus [1]): 9 to 30 mm
- zone of inhibition at 1 µg/mL (Bacillus subtilis [2]): 9 to 30 mm
- zone of inhibition at 1 µg/mL (Pseudomonas aeruginosa [3]): 9 to 30 mm
- zone of inhibition at 1 µg/mL (Escherichia coli [4]): 9 to 30 mm

SMILES: NNC(=O)c1cc(-c2cc3cc(Br)ccc3o2)n(-c2ccccc2)n1
- zone of inhibition at 1 µg/mL (Staphylococcus aureus [1]): 9 to 30 mm
- zone of inhibition at 1 µg/mL (Bacillus subtilis [2]): 9 to 30 mm
- zone of inhibition at 1 µg/mL (Pseudomonas aeruginosa [3]): 9 to 30 mm
- zone of inhibition at 1 µg/mL (Escherichia coli [4]): 9 to 30 mm

SMILES: Cc1ccc(-c2cc(-c3cc4ccccc4o3)nc(S)n2)s1
- MIC (Bacillus subtilis [5]): 4.32 to 18.4 µg/mL (≈ 13.3 to 56.9 µM)
- MIC (Pseudomonas aeruginosa [6]): 4.32 to 18.4 µg/mL (≈ 13.3 to 56.9 µM)
- MIC (Escherichia coli [7]): 4.32 to 18.4 µg/mL (≈ 13.3 to 56.9 µM)

SMILES: CCOC(=O)c1cc(-c2oc3ccc(Cl)cc3c2C)on1
- zone of inhibition at 1 µg/mL (Staphylococcus aureus [1]): 9 to 30 mm
- zone of inhibition at 1 µg/mL (Bacillus subtilis [2]): 9 to 30 mm
- zone of inhibition at 1 µg/mL (Pseudomonas aeruginosa [3]): 9 to 30 mm
- zone of inhibition at 1 µg/mL (Escherichia coli [4]): 9 to 30 mm

SMILES: Cc1ccc(-c2cc(-c3cc4ccccc4o3)nc(O)n2)s1
- MIC (Bacillus subtilis [5]): 4.32 to 18.4 µg/mL (≈ 14 to 59.8 µM)
- MIC (Pseudomonas aeruginosa [6]): 4.32 to 18.4 µg/mL (≈ 14 to 59.8 µM)
- MIC (Escherichia coli [7]): 4.32 to 18.4 µg/mL (≈ 14 to 59.8 µM)

SMILES: c1ccc2oc(-c3cn4c(-c5cc6ccccc6o5)csc4n3)cc2c1
- zone of inhibition at 1000 µg/mL (Escherichia coli [8]): 6 to 23 mm
- zone of inhibition at 1000 µg/mL (Klebsiella pneumoniae): 6 to 23 mm
- zone of inhibition at 1000 µg/mL (Staphylococcus aureus [9]): 6 to 23 mm
- zone of inhibition at 1000 µg/mL (Pseudomonas aeruginosa [10]): 6 to 23 mm

SMILES: CCOC(=O)c1cc(-c2cc3ccccc3o2)on1
- zone of inhibition at 1 µg/mL (Staphylococcus aureus [1]): 9 to 30 mm
- zone of inhibition at 1 µg/mL (Bacillus subtilis [2]): 9 to 30 mm
- zone of inhibition at 1 µg/mL (Pseudomonas aeruginosa [3]): 9 to 30 mm
- zone of inhibition at 1 µg/mL (Escherichia coli [4]): 9 to 30 mm

SMILES: Nc1nc(-c2cc3ccccc3o2)cc(-c2cccs2)n1
- MIC (Bacillus subtilis [5]): 4.32 to 18.4 µg/mL (≈ 14.7 to 62.9 µM)
- MIC (Pseudomonas aeruginosa [6]): 4.32 to 18.4 µg/mL (≈ 14.7 to 62.9 µM)
- MIC (Escherichia coli [7]): 4.32 to 18.4 µg/mL (≈ 14.7 to 62.9 µM)

SMILES: CCOC(=O)c1cc(-c2cc3cc(Br)ccc3o2)on1
- zone of inhibition at 1 µg/mL (Staphylococcus aureus [1]): 9 to 30 mm
- zone of inhibition at 1 µg/mL (Bacillus subtilis [2]): 9 to 30 mm
- zone of inhibition at 1 µg/mL (Pseudomonas aeruginosa [3]): 9 to 30 mm
- zone of inhibition at 1 µg/mL (Escherichia coli [4]): 9 to 30 mm

SMILES: COC(=O)c1cc(-c2oc3c(Cl)cc(Cl)cc3c2C)[nH]n1
- zone of inhibition at 1 µg/mL (Staphylococcus aureus [1]): 19 to 30 mm
- zone of inhibition at 1 µg/mL (Bacillus subtilis [2]): 19 to 30 mm
- zone of inhibition at 1 µg/mL (Pseudomonas aeruginosa [3]): 19 to 30 mm
- zone of inhibition at 1 µg/mL (Escherichia coli [4]): 19 to 30 mm
